Results taken from PubChem BioAssay (NCI).
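48-hour exposure; five concentrations; linearly interpolated endpoints. The concentration for 50% growth inhibition is given as GI50. TGI: total growth inhibition.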

What was measured:
Test in all cases: DTP human tumour cell line panel, 48 h
RPMI-8226 leukemia = test system: RPMI-8226 leukemia
SF-295 CNS = test system: SF-295 CNS
IGROV1 ovarian = test system: IGROV1 ovarian
KM12 colon = test system: KM12 colon
CCRF-CEM leukemia = test system: CCRF-CEM leukemia
A498 renal = test system: A498 renal
EKVX NSCLC = test system: EKVX NSCLC
NCI-H522 lung = test system: NCI-H522 lung
MALME-3M melanoma = test system: MALME-3M melanoma
SNB-75 CNS = test system: SNB-75 CNS

| SMILES | GI50 (RPMI-8226 leukemia) [µM] | TGI (RPMI-8226 leukemia) [µM] | GI50 (SF-295 CNS) [µM] | TGI (SF-295 CNS) [µM] | GI50 (IGROV1 ovarian) [µM] | TGI (IGROV1 ovarian) [µM] | GI50 (KM12 colon) [µM] | TGI (KM12 colon) [µM] | GI50 (CCRF-CEM leukemia) [µM] | TGI (CCRF-CEM leukemia) [µM] | GI50 (A498 renal) [µM] | TGI (A498 renal) [µM] | GI50 (EKVX NSCLC) [µM] | TGI (EKVX NSCLC) [µM] | GI50 (NCI-H522 lung) [µM] | TGI (NCI-H522 lung) [µM] | GI50 (MALME-3M melanoma) [µM] | TGI (MALME-3M melanoma) [µM] | GI50 (SNB-75 CNS) [µM] | TGI (SNB-75 CNS) [µM] |
| --- | --- | --- | --- | --- | --- | --- | --- | --- | --- | --- | --- | --- | --- | --- | --- | --- | --- | --- | --- | --- |
| C=C(CN1CCc2ccccc2C1)c1ccc(/C=C/C(=O)Nc2ccccc2N)cc1 | 2.92 | 13.4 | 3.09 | 40.6 | 4.46 | > 100 | 0.965 | > 100 | 1.04 | > 100 | 16.4 | 36.8 | 10.4 | > 100 | 0.783 | 14.7 | 0.309 | 8.04 | – | – |
| CC1=C2C(=CC(C)(CO)C2O)C(=O)C(C)(O)C12CC2 (stereo unspecified) | – | – | – | 0.00392 | – | 0.106 | – | 0.0219 | 0.00172 | 0.0686 | – | 0.0204 | – | 0.0335 | 0.00088 | 0.00421 | – | 0.0105 | 0.00576 | 0.0165 |
| CN1NC2=NCCN=C3NN(C)C(=NCCN=C1S2)S3 | – | > 100 | – | > 100 | – | > 100 | – | > 100 | – | > 100 | – | > 100 | – | > 100 | – | > 100 | – | – | – | > 100 |
| COC1=C(OC)C(=O)c2cc(SC)c(=O)c(SC)cc2C1=O | – | 40.2 | – | 29.2 | – | > 100 | – | > 100 | – | 4.93 | – | 66.3 | – | 48.9 | – | 34.9 | – | – | – | 28.1 |
| COc1ccc(/C=C\c2cc(OC)c(OC)c(OC)c2)cc1NC(=O)[C@@H](N)CO | 0.0276 | 20.8 | < 0.01 | > 100 | 0.0273 | > 92.6 | < 0.0129 | > 100 | 0.0263 | > 100 | < 0.01 | < 0.0158 | – | – | < 0.01 | 0.0457 | – | – | < 0.0128 | > 66.7 |
| CCCOP1(=O)C=C(C)C(Cl)=C(C)C1 (stereo unspecified) | – | 35.5 | – | > 100 | – | > 100 | – | 43 | – | 59.3 | – | – | – | > 100 | – | 28.5 | – | – | – | 92.6 |
| CN(OC(=O)CC(=O)c1ccccc1)C(=O)Cc1ccccc1 | – | > 100 | – | > 100 | – | > 100 | – | > 100 | – | > 100 | – | > 100 | – | > 100 | – | > 100 | – | > 100 | – | – |
| Cc1c(C(=O)N/N=C/c2ccc(O)cc2)nnn1-c1ccnc2c(C(F)(F)F)cccc12 | > 100 | > 100 | 22 | > 100 | > 100 | > 100 | > 100 | > 100 | > 100 | > 100 | 36.6 | > 100 | > 100 | > 100 | 49.9 | > 100 | – | – | 19.1 | 40 |
| COC1CCC2C(=O)CCCC2O1 (stereo unspecified) | – | > 100 | – | > 100 | – | > 100 | – | > 100 | – | – | – | > 100 | – | > 100 | – | > 100 | – | > 100 | – | > 100 |
| O=NN(CCCl)C(=O)NCc1ccc[n+]([O-])c1 | – | > 100 | – | > 100 | – | > 100 | – | > 100 | – | > 100 | – | – | – | > 100 | – | – | – | > 100 | – | – |
| CC(C)SC1SCC2C(=O)N(C)C3(CC3C)C(=O)OCC(NC(=O)c3nc4ccccc4cc3O)C(=O)NC(C)C(=O)N(C)C1C(=O)N(C)C1(CC1C)C(=O)OCC(NC(=O)c1nc3ccccc3cc1O)C(=O)NC(C)C(=O)N2C (stereo unspecified) | – | < 0.0001 | – | 0.00809 | – | – | – | < 0.0001 | – | < 0.0001 | – | < 0.0001 | – | 0.0759 | – | < 0.0001 | – | – | – | – |
| O=C1CCCSCCCC(=O)CCCSCCC1 | – | – | – | > 100 | – | > 100 | – | > 100 | – | > 100 | – | – | – | > 100 | – | > 100 | – | – | – | > 100 |
| O=C(Oc1cccc(Nc2ncnc3ccccc23)c1)c1ccccc1Cl | – | – | 20 | 47.5 | 14.9 | > 100 | 14.4 | 31.4 | 19.3 | 65.1 | 23.8 | 49.4 | 7.4 | 91.5 | 7.23 | 26.8 | 23.9 | 57.1 | – | – |
| Cc1c2[nH]c3ccc(Br)cc3c2c(C)c2[nH]ccc(=O)c12 | – | 41.5 | – | 28.7 | – | – | – | 25.6 | – | 31.6 | – | – | – | 33.5 | – | 28.5 | – | 28 | – | > 100 |
| Cc1ccc(C)c(-n2c(-c3ccc(Br)cc3)csc2=NC(=O)c2ccccc2F)c1 | – | – | 52.4 | > 100 | > 100 | > 100 | – | – | – | – | > 100 | > 100 | > 100 | > 100 | – | – | > 100 | > 100 | > 100 | > 100 |
| Cc1ccc(C)c(NC(=O)CC2C(=O)Nc3ccccc3S2(=O)=O)c1 (stereo unspecified) | – | > 100 | – | > 100 | – | > 100 | – | – | – | > 100 | – | > 100 | – | > 100 | – | – | – | 96.2 | – | 45.7 |
| CC(C)(C)C(=O)Nc1ccccc1Br | – | > 100 | – | > 100 | – | > 100 | – | > 100 | – | > 100 | – | – | – | > 100 | – | – | – | > 100 | – | > 100 |
| NCCCn1c2c(c3ccccc3c1=O)C(=O)c1cc3c(cc1-2)OCO3 | < 0.0214 | 0.258 | 0.297 | 1.74 | 0.374 | 9.2 | 0.311 | 2.82 | 0.0271 | 0.187 | – | – | 1.23 | 4.79 | 0.474 | 4.79 | 1.48 | 6.64 | – | 1.72 |
| CCN(CC)c1ccc2[nH]c3c(C(N)=O)cc(=O)c(=O)c=3oc2c1 | 0.383 | 4.7 | 1.57 | 6.35 | 0.31 | 1.24 | 2.94 | 11.3 | 1.9 | 8.19 | 1.92 | 9.28 | 2.79 | 15.7 | – | – | 1.16 | 2.96 | 2.04 | 8.59 |
